Experimental data as given in patent publication US10933132B2, “Combination of epigenetic factors and bispecific compounds targeting CD33 and CD3 in the treatment of myeloid leukemia” (AMGEN RESEARCH (MUNICH) GMBH, priority 2013, dated 2021).

Columns and labels:
HL-60 AML cells = assay: Hydroxyurea up-regulation of CD33 on AML cell lines, flow cytometry; assay type: cell-based; details: for CD33 MFI Ratio: day 3, untreated 134.9
Method: (§1) AML cell lines HL-60, PL21, OCI-AML3, KG1a and MV4-11 were seeded in 24-well plates at 1×10^6 cells/ml on day 0. Cells were either left untreated (UT) or treated with 10 μM (H1) or 100 μM (H2) hydroxyurea (Sigma) for three consecutive days (day 0, day 1 and day 2). On day 3, cells were harvested, counted and analyzed for changes in CD33 surface expression level by flow cytometry.

PL21 AML cells = assay: as above; assay type: cell-based; details: for CD33 MFI Ratio: day 3, untreated 166.9
Method: as §1

primary AML cells = assay: Hydroxyurea up-regulation of CD33 on primary AML cells, flow cytometry; assay type: cell-based
Method: Three primary AML samples were seeded in a 12-well plates at 1×10^6 cells/ml, as previously described (Krupka, Subklewe et. al, Blood 2014). Cells were either left untreated (UT) or treated with 10 μM (H1) or 100 μM (H2) hydroxyurea (Sigma) for three consecutive days (day 0, day 1 and day 2). On day 1-day 3, cells were harvested, counted and analyzed for changes in CD33 surface expression by flow cytometry.

CD33 = target: T1, CD33 (Homo sapiens, UniProt P20138); details: cited from earlier work
T1 construct: myeloid differentiation antigen found on AML blasts in most patients; host or cells: AML patients (endogenous CD33 on blasts)

OCI-AML3 cells = assay: AMG 330-induced cytotoxicity with healthy donor T-cells (DAPI, 48 h) after epigenetic drug pretreatment; assay type: cell-based, human; details: 3-day pretreatment, relative to untreated cells
Method: Parental OCI-AML3 and KG-1a cells were either left untreated or pretreated with panobinostat for 72 hours. […] 48 hours later, cell counts were determined and cytotoxicity was assessed with DAPI staining to quantify drug-specific cytotoxicity. Results are shown as mean±SEM from 3 independent experiments performed in duplicate wells using a single healthy donor as source for exogenous T-cells.
(§2) For the experimental settings mononuclear cells were collected from healthy adult volunteers via leukapheresis, and T cells enriched through magnetic cell sorting (Pan T Cell Isolation Kit II; Miltenyi Biotec, Auburn, Calif.). Thawed cell aliquots were labeled with 3 μM CellVue Burgundy (eBioscience, San Diego, Calif.) according to the manufacturer's instructions.
(§3) For the quantification of compound induces cytotoxicity AML cells were taken during exponential growth and incubated at 37° C. […] After 48 hours, cell numbers and drug-induced cytotoxicity, using 4′,6-diamidino-2-phenylindole (DAPI) to detect non-viable cells, were determined using a LSRII flow cytometer (BD Biosciences, San Jose, Calif.) and analyzed with FlowJo (Tree Star, Ashland, Oreg.). AML cells were identified by forward/side scatter properties and negativity for CellVue Burgundy dye.

KG-1a cells [1] = assay: as above; details: 3-day pretreatment, relative to untreated cells
Method: Parental OCI-AML3 and KG-1a cells were either left untreated or pretreated with panobinostat for 72 hours. […] 48 hours later, cell counts were determined and cytotoxicity was assessed with DAPI staining to quantify drug-specific cytotoxicity.
Parental KG-1a cells were either left untreated or pretreated with azacitidine for 72 hours. […] 48 hours later, cell counts were determined and cytotoxicity was assessed with DAPI staining to quantify drug-specific cytotoxicity.
as §2, §3

[2] = target: T2, CD19 B-cell surface antigen and CD3 (Homo sapiens, UniProt P07766+P15391); details: patients with B-cell lymphomas and B precursor ALL; cited from earlier work
T2 construct: host or cells: patients (endogenous CD19 on B cells, CD3 epsilon on T cells)

KG-1a cells [3] = assay: CD33 expression by flow cytometry (PE anti-CD33 P67.6) after pretreatment with epigenetic drug; assay type: cell-based, human; details: 3-day pretreatment, relative to untreated
From the text: CD33 expression on parental AML cells and cell lines was quantified by flow cytometry using a phycoerythrin (PE)-conjugated anti-CD33 antibody (clone P67.6; BD Biosciences, San Jose, Calif., USA) (see Walter et al. Blood. 2005; 105(3):1295-1302).

AML target cells = details: co-therapy of lintuzumab and 5-azacytidine; cited from earlier work
AML cells or macrophages = details: incubation of AML cells or macrophages; cited from earlier work

T1 sequence (P20138 18-364): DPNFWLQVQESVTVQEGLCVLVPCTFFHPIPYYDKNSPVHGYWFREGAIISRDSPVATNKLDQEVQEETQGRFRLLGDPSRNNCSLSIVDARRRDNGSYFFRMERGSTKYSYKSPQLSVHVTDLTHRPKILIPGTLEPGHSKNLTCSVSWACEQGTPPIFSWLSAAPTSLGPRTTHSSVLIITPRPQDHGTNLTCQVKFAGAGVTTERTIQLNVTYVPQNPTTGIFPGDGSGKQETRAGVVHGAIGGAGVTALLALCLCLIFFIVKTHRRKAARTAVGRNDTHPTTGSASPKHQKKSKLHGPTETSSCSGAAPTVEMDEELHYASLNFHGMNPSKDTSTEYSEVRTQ

Molecule: NC(=O)NO [hydroxyurea, Hydroxyurea]
- CD33 MFI Ratio (HL-60 AML cells; HL-60, H1 = 10 μM hydroxyurea on three consecutive days): 171.3
- CD33 MFI Ratio (HL-60 AML cells; HL-60, H2 = 100 μM hydroxyurea on three consecutive days): 210.0
- upregulation of CD33 (in words) (HL-60 AML cells; HL-60 AML cells, 10 and 100 μM): upregulation of CD33
- CD33 MFI Ratio (PL21 AML cells; PL21, H1 = 10 μM hydroxyurea on three consecutive days): 177.9
- CD33 MFI Ratio (PL21 AML cells; PL21, H2 = 100 μM hydroxyurea on three consecutive days): 191.8
- upregulation of CD33 (in words) (PL21 AML cells; PL21 AML cells, 10 and 100 μM): upregulation of CD33
- CD33 MFI Ratio (primary AML cells; primary AML cells patient 2, day 1, H1 = 10 μM hydroxyurea, untreated 3.7): 4.2
- CD33 MFI Ratio (primary AML cells; primary AML cells patient 2, day 1, H2 = 100 μM hydroxyurea, untreated 3.7): 4.5
- CD33 MFI Ratio (primary AML cells; primary AML cells patient 2, day 2, H1 = 10 μM hydroxyurea, untreated 4.8): 4.2
- CD33 MFI Ratio (primary AML cells; primary AML cells patient 2, day 2, H2 = 100 μM hydroxyurea, untreated 4.8): 5.1
- up-regulation of CD33 in patient samples (in words) (primary AML cells; three primary AML samples, day 1 and day 2 of incubation): up-regulation of CD33 in 1 of 3 patient samples

Molecule: lintuzumab: intact humanized CD33 antibody
- survival benefit (CD33; phase III trial, combined with a triple chemotherapy regimen): no survival benefit
- clinical response (CD33; single-agent phase I and II trial): complete remission in individual patients

Molecule: Cc1[nH]c2ccccc2c1CCNCc1ccc(/C=C/C(=O)NO)cc1 [panobinostat]
- sensitivity to AMG 330-induced cytotoxicity (OCI-AML3 cells): modestly more sensitive
- sensitivity to AMG 330-induced cytotoxicity (KG-1a cells [1]): modestly more sensitive

Molecule: blinatumomab: bispecific antibody directed at CD19 and the CD3 component of the T-cell receptor complex
- therapeutic efficacy [2]: therapeutic efficacy was shown

Molecule: Nc1ncn([C@@H]2O[C@H](CO)[C@@H](O)[C@H]2O)c(=O)n1 [azacitidine, 5-azacytidine]
- CD33 expression (KG-1a cells [3]): significant increase
- lintuzumab-mediated ADCC (AML target cells): improved
- CD33 expression (AML cells or macrophages): did not affect
